According to US8338423B2, “Compositions for the treatment of hyperphenylalaninemia” (Universidad de Zaragoza, priority 2007, dated 2012):

Columns and labels:
[1] = target: T1, wt-PAH (Homo sapiens, UniProt P00439); assay: Enzyme kinetic analysis of recombinant PAH activity; assay type: biochemical; settings: for reduction in Vmax (activity dependence on L-Phe) / inhibition of PAH activity / increase of Km for BH4 / S0.5, L-Phe / Vmax, L-Phe / h (Hill coefficient), L-Phe / Vmax, BH4, No preincubation / Vmax, BH4, Preincubation: 100 μM compound; for reduction in Vmax (activity dependence on L-Phe): 75 μM BH4; for inhibition of PAH activity: 100 μM L-Phe, 10 μM BH4, L-Phe preincubation (FIG. 3A); for increase of Km for BH4: preincubation with 1 mM L-Phe; for S0.5, L-Phe / Vmax, L-Phe / h (Hill coefficient), L-Phe: 75 μM BH4, L-Phe 0-1 mM, preincubated; for S0.5, L-Phe / Vmax, L-Phe / h (Hill coefficient), L-Phe / Vmax, BH4, No preincubation / Vmax, BH4, Preincubation: mean ± S.E.; for Vmax, BH4, No preincubation / Vmax, BH4, Preincubation: 1 mM L-Phe, BH4 0-200 μM; for Vmax, BH4, No preincubation: not preincubated; for Vmax, BH4, Preincubation: preincubated with L-Phe; for Ki: using standard equations for competitive inhibition, read-out: Kl vs BH4 (competitive inhibition)
T1 construct: made in house; host or cells: E. coli
T1 sequence (P00439 1-452): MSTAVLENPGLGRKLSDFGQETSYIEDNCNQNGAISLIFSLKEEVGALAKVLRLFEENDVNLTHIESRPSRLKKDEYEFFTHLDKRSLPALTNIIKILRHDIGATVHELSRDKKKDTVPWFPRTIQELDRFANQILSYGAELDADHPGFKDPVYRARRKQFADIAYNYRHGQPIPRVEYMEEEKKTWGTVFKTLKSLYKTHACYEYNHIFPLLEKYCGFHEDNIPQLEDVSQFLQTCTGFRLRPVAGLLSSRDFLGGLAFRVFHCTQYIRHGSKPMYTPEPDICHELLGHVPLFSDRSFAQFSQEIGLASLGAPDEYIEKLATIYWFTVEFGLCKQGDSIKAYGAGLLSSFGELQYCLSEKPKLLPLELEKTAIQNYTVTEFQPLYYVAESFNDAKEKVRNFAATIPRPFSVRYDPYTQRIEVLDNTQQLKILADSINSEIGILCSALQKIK
Procedure: PAH activity was measured at 25° C. for 1 min essentially as described (BjØrgo E, et al., Eur. J. Biochem. 1988; 257(1):1-10). Tetrameric hPAH (1-2 μg) was incubated in 20 mM Hepes 0.2 M NaCl pH 7.0, containing catalase (0.04 mg/ml), 0.1-1 mM L-Phe, DMSO 2.5% and 0-100 μM of each compound. After 4 min incubation at 25° C., ferrous ammonium sulphate (100 μM) was added, and the reaction was triggered after 1 min by adding BH4 (10-200 μM) in the presence of 5 mM DTT. In some experiments, the preincubation step with L-Phe was omitted and L-Phe was added together with BH4 to analyze the L-Phe induced activation of the enzyme. To determine the kinetic parameters for BH4 and L-Phe, BH4 was used at 0-200 μM (at fixed 1 mM L-Phe) and L-Phe at 0-1 mM (BH4 was fixed at 75 μM). L-Tyr formed was quantified by HPLC and fluorimetric detection (DØskeland A P, et al., J. Biol. Chem. 1984; 259:11242-11248). The saturation curves were fitted to hyperbolic (for BH4) or sigmoidal (for L-Phe) kinetic models by using Sigma Plot v.9.0 (SPSS Inc).
PAH enzyme kinetics have been analyzed in the presence of the four hit compounds in order to know if ligand binding interferes with PAH catalytic activity. Activity measurements were performed in the presence of high (100 μM) concentrations of ligands with or without preincubating PAH enzyme with L-Phe prior to activity assays. L-Phe preincubation of human PAH lead to activation of the enzyme and manifestation of positive cooperativity by the substrate, and it is thought to play an important regulatory role on PAH activity in vivo (Pey A L, et al., In: Blau N. ed. Advances in PKU and BH4, 2006). […] It is worth noting that under these conditions, ligand concentration equalled L-Phe concentration (100 μM), and 10-fold exceeded BH4 concentration (10 μM). Except for compound 13, this inhibition was dramatically weakened when the preincubation step with L-Phe (100 μM) was ommited. Moreover, when L-Phe and BH4 are used at saturating concentrations, inhibition was abolished (FIG. 3B), indicating a rather weak and reversible inhibitory effect exerted by these ligands.
Further kinetic analyses were performed to determine if the weak inhibition was due to competition for the substrate and/or cofactor binding sites. Activity dependence on BH4 and L-Phe concentration was measured in the presence of 100 μM compound concentration, and the experimental data fitted to hyperbolic (BH4) or sigmoidal (L-Phe) kinetic models. The fitting parameters obtained from these experiments are compiled in Table 2. […] These values are substantially higher than those obtained for likely physiological inhibitors of PAH, such as 7S-BH4 and BH2 (Kl˜2-5 μM and ˜17 μM, respectively).

[2] = target: T1, wt-PAH; assay: ANS-monitored thermal unfolding of wt-PAH; assay type: binding; settings: for stabilizing effect on wt-PAH: 25 μM compound (FIG. 2); for ΔT0.5 PAHwt / T0.5 PAHwt (half denaturation temperature): 100 μM compound; for ΔT0.5 PAHwt: vs no ligand; for T0.5 PAHwt (half denaturation temperature): mean ± SD
Procedure: HTS for ligand-induced PAH stabilization was performed by monitoring the thermal denaturation of recombinant pure PAH protein in the presence of the extrinsic fluorescent probe 8-anilino 1-naphtalene sulfonic acid (ANS; Aldrich). HTS experiments were performed in a FluoDia T70 High Temperature Fluorescence Microplate Reader (Photon Technology International). Protein-ligand solutions (200 uL) were dispensed into 96-well microplates (ThermoFast®96 Skirted from Abgene) and overlayed with mineral oil. Protein solutions contained 0.1 mg/ml PAH (2 μM in PAH subunit) in 20 mM Hepes 200 mM NaCl pH 7.0 and 100 μM ANS. Ligands were added in DMSO, at 100 μM and 2.5% final concentration, respectively. Control experiments in the absence of DMSO and/or ligands were routinely performed in each microplate. Ligands (from MayBridge HitFinder™ Collection Database) were manually added to the microplates containing the protein solutions and incubated at 25° C. for 30 min before loading them onto the microplate reader. Thermal denaturation was monitored by following the increase in ANS fluorescence intensity due to protein unfolding λexc=395 and λern=500 nm; filters (Matulis D, et. Al., Biochemistry 2005, 44(13):5258-66). Fluorescence was registered in the 25-75° C. range, at a 1° C./min scan rate and allowing the system to equilibrate at each temperature for 1 min before fluorescence acquisition The experiments were real-time monitored using the software provided by the manufacturer. After smoothing and normalization of the experimental data, ligand induced stabilization was screened by estimation of the T0.5 as midpoint temperature of the transition defined as the temperature where half of the unfolded fluorescence signal (fu) is experimentally observed, using a home-built software written in C++ and the following expression (equation 1): […]
Additional thermal denaturation experiments were performed on a Cary Eclipse fluorescence spectrophotometer equipped with a temperature controlled Peltier multicell holder (Varian). Samples containing PAH (2 μM subunit) in 20 mM NaHepes, 200 mM NaCl, pH 7.0, 100 μM ANS, 2.5% DMSO and 0-100 μM ligands were incubated at room temperature for 30 min to allow equilibration prior to measurements. Thermal denaturation was monitored by following changes in ANS fluorescence emission (excitation at 395 and emission at 500 nm; slits 10 nm) at a 1 K/min in a 20-80° C. range. Each run contained 4 different samples, including a control in the absence of ligand. Data analysis was performed by fitting of the experimental fluorescence to equation 1.

| reduction in Vmax (activity dependence on L-Phe) [1] | inhibition of PAH activity [1] | increase of Km for BH4 [1] [%] | S0.5, L-Phe [1] [µM] | Vmax, L-Phe [1] [μmol L-Tyr/min·mg] | h (Hill coefficient), L-Phe [1] | Vmax, BH4, No preincubation [1] [μmol L-Tyr/min·mg] | Vmax, BH4, Preincubation [1] [μmol L-Tyr/min·mg] | Ki [1] [µM] | stabilizing effect on wt-PAH [2] | ΔT0.5 PAHwt [2] [°C] | T0.5 PAHwt (half denaturation temperature) [2] [°C] | SMILES |
| --- | --- | --- | --- | --- | --- | --- | --- | --- | --- | --- | --- | --- |
| ~30% | specially significant | ~50 | 131 ± 11 | 2.43 ± 0.10 | 1.6 ± 0.2 | 0.85 ± 0.07 | 3.11 ± 0.16 | ~200 | significant | 7.2 | 56.7 ± 1.5 | Cc1ccnc(-n2c(=S)[nH]c3sc(C)c(C)c3c2=O)c1 [Compound 13, 5,6-dimethyl-3-(4-methyl-2-pyridinyl)-2-thioxo-2,3 dihydrothieno[2,3-d]pyrimidin-4(1H)-one] |
| – | – | – | 138 ± 8 | 3.57 ± 0.11 | 1.9 ± 0.2 | 0.86 ± 0.03 | 2.87 ± 0.14 | – | significant | 13.6 | 63.1 ± 2.9 | Nc1c(-c2ccc3ccccc3n2)c2ccc([N+](=O)[O-])cc2c(=O)n1Cc1ccccc1 [Compound 11, 3-amino-2-benzyl-7-nitro-4-(2-quinolyl)-1,2-dihydroisoquinolin-1-one] |
| about 13% | specially significant | ~20 | 118 ± 5 | 3.02 ± 0.08 | 2.6 ± 0.3 | 0.80 ± 0.05 | 3.52 ± 0.41 | ~500 | – | 2.6 | 52.1 ± 0.9 | Cc1onc(-c2ccccc2)c1-c1n[nH]c(N)c1C#N [Compound 5, 5-amino-3-(5-methyl-3-phenyl-4-isoxazolyl)-1H-pyrazole-4-carbonitrile] |
| – | – | – | 156 ± 10 | 3.77 ± 0.13 | 1.8 ± 0.1 | 0.81 ± 0.05 | 2.96 ± 0.10 | – | – | 2.7 | 52.2 ± 1.3 | Cn1cnc([N+](=O)[O-])c1N1CCN(C(c2ccccc2)c2ccccc2)CC1 [Compound 6, 1-benzhydryl-4-(1-methyl-4-nitro-1H-imidazol-5-yl)piperazine] |
